Measurements reported in US20260053794A1, “SOMATOSTATIN RECEPTOR 2 AGONISTS AND USES THEREOF” (Exelixis, Inc., priority 2022, published 2026).

What follows are compounds tested against T1, Somatostatin Receptor 2 (SSTR2) (Homo sapiens, UniProt P30874) (assay: Biochemical Assay for Activation of Somatostatin Receptor 2 (SSTR2), Cisbio HTRF cAMP assay). Conditions: average pEC50; HTRF cAMP assay in stably-transfected cell line expressing SSTR2; cells incubated with compounds for 1-2h.
T1 construct: expressed in transfected cells
Assay type: cell-based
Method: Biochemical Assay for Activation of Somatostatin Receptor 2 (SSTR2)
Agonistic activation of SSTRs leads to an […] production of intracellular cAMP levels. Cisbio's homogeneous time-resolved fluorescence (HTRF) cAMP assay was used to measure cAMP concentration in an high-throughput format. Increase in intracellular cAMP concentrations was measuring using a stably-transfected cell line expressing SSTR2. Test compounds were dissolved in DMSO. Cells were incubated with compounds for 1-2h, and subsequently competitive binding of cAMP produced due to the activation of SSTR2 by the test compounds was measured using the Cisbio cAMP Gs dynamic assay system (Perkin Elmer, Bedford, MA).
The average pEC50 was determined for the test compounds.

T1 sequence (P30874 whole entry, species assumed): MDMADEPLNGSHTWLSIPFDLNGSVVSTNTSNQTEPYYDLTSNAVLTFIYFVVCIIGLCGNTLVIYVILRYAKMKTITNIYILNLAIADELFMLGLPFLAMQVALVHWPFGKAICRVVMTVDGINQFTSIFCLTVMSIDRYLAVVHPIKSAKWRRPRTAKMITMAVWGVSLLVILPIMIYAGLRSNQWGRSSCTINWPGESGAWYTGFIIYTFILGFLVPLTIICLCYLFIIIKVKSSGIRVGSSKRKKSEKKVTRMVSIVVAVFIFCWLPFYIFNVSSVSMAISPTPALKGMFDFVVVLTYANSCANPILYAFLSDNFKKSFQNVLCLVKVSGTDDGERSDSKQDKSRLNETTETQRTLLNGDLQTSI

EC50 | Structure (SMILES)
2000 nM | CNCCCNc1c(C(=O)Nc2ccc(F)c(F)c2)cncc1-c1cc(F)cc(F)c1 [Compound 117]
> 10000 nM | CNCCCn1c(=O)n(-c2ccc(F)c(F)c2)c(=O)c2cncc(-c3cc(F)cc(F)c3)c21 [Compound 118]
0.0501 nM | Cc1cc(F)cc(-c2cncc(N3Cc4ccccc4C3)c2N2CCC(N)CC2)c1 [Compound 119]
6310 nM | NC1CCN(c2c(-c3nc4cc(F)c(F)cc4[nH]3)cnc3ncc4ccc(F)cc4c23)CC1 [Compound 120]
631 nM | NC1CCN(c2c(-c3nc4cc(F)c(F)cc4[nH]3)cnc3c2-c2cc(F)ccc2CO3)CC1 [Compound 121, 1-(2-(5,6-difluoro-1H-benzo[d]imidazol-2-yl)-9-fluoro-6H-isochromeno[3,4-b]pyridin-1-yl)piperidin-4-amine]
> 10000 nM | N#Cc1cccc(-c2ccc3ncc(-c4cc(F)cc(F)c4)c(-c4ccc(N)cc4)c3c2)c1O [Compound 122, 3-(4-(4-aminophenyl)-3-(3,5-difluorophenyl)quinolin-6-yl)-2-hydroxy benzonitrile]
> 10000 nM | N#Cc1cccc(-c2ccc3ncc(-c4cc(F)cc(F)c4)c(-c4ccc(N)cn4)c3c2)c1O [Compound 123]
5.01 nM | N#Cc1cccc(-c2ccc3ncc(-c4cc(F)cc(F)c4)c(C4=CCC(N)CC4)c3c2)c1O (stereo not shown) [Compound 125]
251 nM | N#Cc1cccc(-c2cc3ncc(-c4cc(F)cc(F)c4)c(N4CCC(N)CC4)c3o2)c1O [Compound 127, 3-(7-(4-aminopiperidin-1-yl)-6-(3,5-difluorophenyl)furo[3,2-b]pyridine-2-yl)-2-hydroxybenzonitrile]
100 nM | NC(=O)c1cc(F)cc(-c2cc3ncc(-c4cc(F)cc(F)c4)c(N4CCC(N)CC4)c3o2)c1 [Compound 128]
100 nM | COc1cc(F)cc(-c2cnc3cc(-c4ccc5[nH]c(=O)[nH]c5c4)oc3c2N2CCC(N)CC2)c1 [Compound 130]
> 10000 nM | N#Cc1cccc(-c2cc3c(N4CCC(N)CC4)c(-c4cc(F)cc(F)c4)cnc3o2)c1O [Compound 131]
> 10000 nM | N#Cc1cccc(-c2cc3ncc(-c4cc(F)cc(F)c4)c(N4CCC(N)CC4)c3s2)c1O [Compound 132]
1580 nM | NC1CCN(c2c(-c3cc(F)cc(F)c3)cnc3cc(-c4cc(F)cc(F)c4)sc23)CC1 [Compound 133]
631 nM | NC1CCN(c2c(-c3cc(F)cc(F)c3)cnc3sc(-c4cc(F)cc(F)c4)cc23)CC1 [Compound 134]
20 nM | Cc1cc(F)cc(-c2cnc3ccc(-c4cccc(C#N)c4O)cc3c2N2CCC(NC(=N)N)CC2)c1 [Compound 136]
> 10000 nM | N#Cc1cccc(-c2ccc3ncc(-c4cc(F)cc(F)c4)c(N4CC5(CNC5)C4)c3c2)c1O [Compound 137]
6310 nM | COCOc1c(C#N)cccc1-c1ccc2ncc(-c3cc(F)cc(F)c3)c(N3CC4(CNC4)C3)c2c1 [Compound 138]
> 5010 nM | COCOc1c(C#N)cccc1-c1ccc2ncc(-c3cc(F)cc(F)c3)c(N3CC4(CN(C(C)=O)C4)C3)c2c1 [Compound 139]
> 10000 nM | COCOc1c(C#N)cccc1-c1ccc2ncc(-c3cc(F)cc(F)c3)c(O[C@H]3CC[C@@H](NC(=O)OC(C)(C)C)C3)c2c1 [Compound 140]
> 10000 nM | COCOc1c(C#N)cccc1-c1ccc2ncc(-c3cc(F)cc(F)c3)c(OC3CCCC(NC(=O)OC(C)(C)C)C3)c2c1 (stereo not shown) [Compound 141]
0.501 nM | C=CCOc1c(C#N)cccc1-c1ccc2ncc(-c3cc(F)cc(F)c3)c(N3CCC(N)CC3)c2c1 [Compound 142]

EC50 | Structure (SMILES)
> 10000 nM | COCOc1c(C#N)cccc1-c1ccc2ncc(-c3cc(F)cc(F)c3)c(-n3ccc([N+](=O)[O-])c3)c2c1 [Compound 143]
1260 nM | N#Cc1cccc(-c2ccc3ncc(-c4cc(F)cc(F)c4)c(-n4ccc(CN)c4)c3c2)c1O [Compound 144]
0.0316 nM | NC1CCN(c2c(-c3cc(F)cc(F)c3)cnc3ccc(-c4cc(F)cc(F)c4)cc23)CC1 [Compound 145]
398 nM | N#Cc1cccc(-c2ccc3ncc(-c4cc(F)cc(F)c4)c(N4CCC(O)CC4)c3c2)c1NCCCN [Compound 146]
0.0398 nM | CCOC(=O)c1cc(-c2cc(F)cc(F)c2)cc2c(N3CCC(N)CC3)c(-c3cc(F)cc(F)c3)cnc12 [Compound 147]
> 794 nM | CC(C)(C)OC(=O)NC1CCN(c2c(-c3cc(F)cc(F)c3)cnc3c(C(=O)O)cc(-c4cc(F)cc(F)c4)cc23)CC1 [Compound 148]
0.398 nM | NC1CCN(c2c(-c3cc(F)cc(F)c3)cnc3c(C(=O)O)cc(-c4cc(F)cc(F)c4)cc23)CC1 [Compound 149]
1.58 nM | NC1CCN(c2c(-c3cc(F)cc(F)c3)cnc3ccc(C4=CC=CC5(O)C(=O)NCCN45)cc23)CC1 (stereo not shown) [Compound 151]
7.94 nM | NC1CCN(c2c(-c3cc(F)cc(F)c3)cnc3ccc(C4=CC=CC5(Cl)C(=O)NCCN45)cc23)CC1 (stereo not shown) [Compound 152]
3.16 nM | C=COc1c(C#N)cccc1-c1ccc2ncc(-c3cc(F)cc(F)c3)c(N3CC[C@H](N)[C@@H](O)C3)c2c1 [Compound 153]
0.316 nM | COc1c(C#N)cccc1-c1ccc2ncc(-c3cc(F)cc(F)c3)c(N3CCC(N)CC3)c2c1 [Compound 154]
631 nM | CC(N)CCN1CCc2c(-c3cc(F)cc(F)c3)ccc3ncc(-c4cc(F)cc(F)c4)c1c23 (stereo not shown) [Compound 155]
10 nM | CN1c2c(cnc3ccc(-c4cc(F)cc(F)c4)cc23)-c2cc(F)cc(F)c2C1CCN (stereo not shown) [Compound 157]
501 nM | NC1CCN(c2c(-c3cc(F)cc(F)c3)cnc3ccc(C4=CC=CN5CCNC(=O)C45O)cc23)CC1 (stereo not shown) [Compound 158]
0.398 nM | NCc1cc(-c2cc(F)cc(F)c2)cc2c(N3CCC(N)CC3)c(-c3cc(F)cc(F)c3)cnc12 [Compound 159]
0.0251 nM | NC1CCN(c2c(-c3cc(F)cc(F)c3)cnc3c(CO)cc(-c4cc(F)cc(F)c4)cc23)CC1 [Compound 160]
10 nM | Cc1cc(F)cc(-c2c[n+]3c4ccc(cc4c2N2CCC(N)CC2)-c2ccccc2OCCCC3)c1 [Compound 161]
1000 nM | Cc1cc(F)cc(-c2cnc3ccc(-c4ccccc4C4NCCCN4)cc3c2N2CCC(=O)CC2)c1 [Compound 162]
> 10000 nM | Cc1cc(F)cc(-c2cnc3ccc(-c4cccc(C#N)c4O)cc3c2N2CCC(=O)CC2)c1 [Compound 163]
> 10000 nM | Cc1cc(F)cc(-c2cnc3ccc(-c4cccc(C#N)c4O)cc3c2N2CCC(O)CC2)c1 [Compound 164]
12.6 nM | Nc1nc(Cl)ccc1C(=O)Nc1cncc(-c2ccccc2)c1N1CCC(N)CC1 [Compound 165]
